Experimental findings from patent US9328095B2, “Heteroaryl linked quinolinyl modulators of RORgammat” (Janssen Pharmaceutica NV, priority 2013, dated 2016) are described below.

SMILES strings stand for the structures.

Assay [1] has as its system IL-17 production by CD4 T cells. In words: Human Th17 assay. Type of assay: cell-based. The note with it: 3 days. The text has this: The human Th17 assay tests the effect of RORγt modulatory compounds on IL-17 production by CD4 T cells under conditions which favor Th17 differentiation.
Total CD4^+ T cells were isolated from the peripheral blood mononuclear cells (PBMC) of healthy donors using a CD4^+ T cell isolation kit II, following the manufacturer's instructions (Miltenyi Biotec). Cells were resuspended in a medium of RPMI-1640 supplemented with 10% fetal bovine serum, penicillin, streptomycin, glutamate, and β-mercaptoethanol and were added to 96-well plates at 1.5×10^5 per 100 μL per well. 50 μL of compound at titrated concentrations in DMSO were added into each well at final DMSO concentration at 0.2%. Cells were incubated for 1 hour, then 50 μL of Th17 cell differentiation medium was added to each well. The final concentrations of antibodies and cytokines (R&D Systems) in differentiation medium were: 3×10^6/mL anti-CD3/CD28 beads (prepared using human T cell activation/expansion kit, Miltenyi Biotec), 10 μg/mL anti-IL4, 10 μg/mL anti-IFNγ, 10 ng/mL IL1β, 10 ng/mL IL23, 50 ng/mL IL6, 3 ng/mL TGFβ and 20 U/mL IL2. Cells were cultured at 37° C. and 5% CO2 for 3 days. Supernatants were collected and the accumulated IL-17 in culture was measured by using MULTI-SPOT® Cytokine Plate following manufacture's instruction (Meso Scale Discovery). The plate was read using Sector Imager 6000, and IL-17 concentration was extrapolated from the standard curve. The IC50s were determined by GraphPad.

The target in assay [2] is T1, human RORγt ligand binding domain (RORγt LBD) (Homo sapiens, UniProt P51449).
T1 construct: His-tag (N); TurboTEV protease cleavage site (ENLYFQG) (N); made in house; host or cells: E. coli (pHIS1, modified pET vector)
T1 sequence (P51449 with tags, fused parts or gaps): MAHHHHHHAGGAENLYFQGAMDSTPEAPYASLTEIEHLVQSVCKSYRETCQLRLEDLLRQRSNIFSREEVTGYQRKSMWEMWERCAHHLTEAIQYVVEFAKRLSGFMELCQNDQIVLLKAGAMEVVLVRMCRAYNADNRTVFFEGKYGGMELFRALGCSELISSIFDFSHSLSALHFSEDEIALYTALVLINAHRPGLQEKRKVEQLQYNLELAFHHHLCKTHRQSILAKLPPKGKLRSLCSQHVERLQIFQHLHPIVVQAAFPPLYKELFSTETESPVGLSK
In words: RORγt ThermoFluor assay. As for the experimental part: This approach is applicable to a wide variety of systems, and rigorous in theoretical interpretation through quantitation of equilibrium binding constants (KD).
The shift in the melting point described as a ΔTm is proportional to the concentration and affinity of the ligand. The compound potency may be compared as a rank order of either ΔTm values at a single compound concentration or in terms of KD values, estimated from concentration response curves.
ThermoFluor® experiments were carried out using instruments owned by Janssen Research and Discovery, L.L.C. through its acquisition of 3-Dimensional Pharmaceuticals, Inc. 1,8-ANS (Invitrogen) was used as a fluorescent dye. […]
Bar-coded assay plates are robotically loaded onto a thermostatically controlled PCR-type thermal block and then heated at a typical ramp-rate of 1° C./min for all experiments. Fluorescence was measured by continuous illumination with UV light (Hamamatsu LC6) supplied via fiber optic and filtered through a band-pass filter (380-400 nm; >6 OD cutoff). Fluorescence emission of the entire 384-well plate was detected by measuring light intensity using a CCD camera (Sensys, Roper Scientific) filtered to detect 500±25 nm, resulting in simultaneous and independent readings of all 384 wells. […]
A general note: In DSF a fluorescence change marks the thermal transition of the protein.

Assay [3] deals with T2, wild type human RORγt LBD fused to the DNA binding domain of the GAL4 protein (Homo sapiens, UniProt P51449).
T2 construct: expressed in transfected cells; host or cells: HEK293T
T2 sequence (P51449 258-518): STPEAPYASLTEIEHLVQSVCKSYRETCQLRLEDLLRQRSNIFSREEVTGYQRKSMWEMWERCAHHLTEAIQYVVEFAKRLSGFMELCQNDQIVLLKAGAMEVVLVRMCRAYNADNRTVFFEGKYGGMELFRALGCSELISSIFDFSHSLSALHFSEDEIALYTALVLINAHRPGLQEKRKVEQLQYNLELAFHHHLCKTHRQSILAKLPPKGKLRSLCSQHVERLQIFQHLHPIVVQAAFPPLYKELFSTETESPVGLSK
Put plainly: RORγt reporter assay. The class given is cell-based. The note with it: HEK293T cells. The text has this: A reporter assay was used to test functional activity of RORγt modulatory compounds on transcriptional activation driven by the RORγt LBD. Cells used in the assay were co-transfected with two constructs. The first construct, pBIND-RORγt LBD, contained the wild type human RORγt LBD fused to the DNA binding domain of the GAL4 protein. The second construct, pGL4.31 (Promega Cat no. C935A), contained multiple GAL4 responsive DNA elements upstream of firefly luciferase. […] The mutant construct was called pBIND-RORγt-AF2.
The pBIND vector contains the GAL4 DNA Binding Domain (GAL4 DBD) and the renilla luciferase gene under control of the SV40 promoter. […]
The reporter assay was performed by transiently transfecting HEK293T cells with 5 μg of pBIND-RORγt LBD or pBIND-RORγt LBD-AF2 and 5 μg pGL4.31 (Promega Cat no. C935A) using Fugene 6 (Invitrogen Cat no. E2691) at a 1:6 ratio of DNA: Fugene 6 in a T-75 flask in which cells were at least 80% confluent. […] Dual Glo Luciferase Reagent (50 μL/well) was then added and firefly luciferase luminescence was read on an Envision after a ten minute incubation. Finally, Stop and Glo reagent (50 μL/well) was added and renilla luciferase luminescence was read on an Envision after a ten minute incubation. To calculate the effect of compounds on RORγt activity, the ratio of firefly to renilla luciferase was determined and plotted against compound concentration. […]
A general note: Reporter assays use an easily measured gene product as a stand-in for the process of interest.

Regarding `Cn1cncc1C(O)(c1ccc(C(F)(F)F)nc1)c1ccc2nc(N3CCCC3)c(Oc3ccc(C#N)cc3)c(Cl)c2c1` (stereo not drawn) [Example 2b], in assay [1], the IC50 – broadly, the midpoint of a concentration-inhibition curve – stood at 320 nM. The same measure, in the same setting: in the case of `Cn1cncc1C(O)(c1ccc(C(F)(F)F)nc1)c1ccc2nc(N3CCCC3)c(Oc3ccc(C#N)cc3)c(Cl)c2c1` (stereo not drawn) [Example 2c] it was 100 nM; in that of `Cn1cncc1C(O)(c1ccc(C(F)(F)F)nc1)c1ccc2nc(N3CCCC3)c(Oc3ccc(C#N)cc3)c(Cl)c2c1` (stereo not drawn) [Example 2a, 4-((4-Chloro-6-(hydroxy(1-methyl-1H-imidazol-5-yl)(6-(trifluoromethyl)pyridin-3-yl)methyl)-2-(pyrrolidin-1-yl)quinolin-3-yl)oxy)benzonitrile], 88 nM. `CC(C)(C)OC(=O)N(c1ccccc1)c1c(Cl)nc2ccc(C(O)(c3cccnc3)c3cccc(Cl)c3)cc2c1Cl` (stereo not drawn) [Example 7, tert-Butyl (2,4-dichloro-6-((3-chlorophenyl)(hydroxy)(pyridin-3-yl)methyl)quinolin-3-yl)(phenyl)carbamate]: the Kd (commonly a measure of binding affinity in units of concentration) in assay [2] came out at 23000 nM. This compound also showed an IC50 in assay [3] of 1400 nM. With `CCN(CC)c1nc2ccc(C(O)(c3ccccn3)c3cncn3C)cc2c(C#N)c1Oc1ccccc1` (single isomer, unassigned) [Example 5c], the inhibition – broadly, the relative decrease from the control value, in per cent – at 6 µM in assay [3] (HEK-293T, 6 μM) stood at 103%.
